{"source": "patent US7220777B2", "about": "“Lactam derivatives as antagonists for human 11cby receptors” (SmithKline Beecham P.L.C., priority 2001, dated 2007)", "key": {"[1]": {"tested_on": "conscious CD rats", "assay": "Effects of 11CBy antagonists on plasma glucagon and blood glucose levels (rat glucagon secretion model)", "assay_type": "in vivo", "source_text": "Study of Effects of 11CBy Antagonists on Plasma Glucagon and Blood Glucose Levels"}, "[2]": {"molecular_target": "T1, 353 form of the 11CBy receptor (Homo sapiens, UniProt Q99705)", "T1 construct": "expressed in transfected cells; well washed membranes", "T1 sequence (Q99705 whole entry)": "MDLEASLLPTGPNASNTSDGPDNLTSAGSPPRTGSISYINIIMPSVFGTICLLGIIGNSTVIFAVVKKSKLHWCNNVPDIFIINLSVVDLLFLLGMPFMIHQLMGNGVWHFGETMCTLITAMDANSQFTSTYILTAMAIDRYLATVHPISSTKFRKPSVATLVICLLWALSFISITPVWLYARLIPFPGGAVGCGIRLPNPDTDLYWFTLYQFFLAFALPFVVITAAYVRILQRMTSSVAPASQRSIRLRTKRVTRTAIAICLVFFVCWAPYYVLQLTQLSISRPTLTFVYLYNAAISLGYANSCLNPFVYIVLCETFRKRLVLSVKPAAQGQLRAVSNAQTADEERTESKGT", "assay": "Radioligand ([125I]-MCH) competitive binding on membranes from HEK293 cells stably expressing 11CBy receptors", "conditions": "[125I]-MCH 0.22 nM, 45 min 37° C., pH7.4, pKi calculated from IC50", "procedure": "Membranes ([…] protein) were incubated with [^125I]-Melanin Concentrating Hormone (0.22 nM) (obtained from NEN) in the presence and absence of competing test compounds for 45 min at 37° C. in a buffer (pH7.4), containing 50 mM Tris and 0.2% BSA. Non-specific binding was defined using […] Melanin Concentrating Hormone (obtained from Bachem). The test compounds were added at concentrations between […] and 10 pM in 10 concentration steps. Following incubation, the reaction was stopped by filtration through GF/B filters and washed with 4×1 ml of ice-cold 50 mM Tris buffer. Microscint 20 (Packard) was added to the filters and the radioactivity measured using a Packard TopCount. Bound cpm in the presence of test compound was expressed as a fraction of the bound cpm in the absence of test compound and plotted against the concentration of compound. From this an IC50 was determined from which the pKi was calculated."}, "[3]": {"conditions": "Example A4 15 mg/kg + MCH group, 5 min"}, "[4]": {"conditions": "Example A4 15 mg/kg + MCH group, 15 min"}, "[5]": {"conditions": "Example A4 15 mg/kg + MCH group, time 0"}}, "note": "Where no end group is shown, it is not given here.", "data": [{"compound": "COc1cc(N2C(=O)c3ccc(Oc4ccccc4)cc3C2=O)ccc1OCCN1CCCC1.Cl", "note": "[Example A4, 2-[3-Methoxy-4-(2-pyrrolidin-1-yl-ethoxy)-phenyl]-5-phenoxy-isoindole-1,3-dione hydrochloride]", "values": [{"measurement": "Blood glucose", "setting": "[1]; [3]", "result": "6.46 ± 0.46 (7) mmol/l"}, {"measurement": "Plasma glucagon", "setting": "[1]; [3]", "result": "30.85 ± 2.01 (7) pg/ml"}, {"measurement": "Blood glucose", "setting": "[1]; [4]", "result": "7.71 ± 0.43 (7) mmol/l"}, {"measurement": "Plasma glucagon", "setting": "[1]; [4]", "result": "22.87 ± 0.56 (5) pg/ml"}, {"measurement": "Blood glucose", "setting": "[1]; [5]", "result": "5.35 ± 0.23 (7) mmol/l"}, {"measurement": "Plasma glucagon", "setting": "[1]; [5]", "result": "23.45 ± 1.16 (7) pg/ml"}, {"measurement": "rise in plasma glucagon", "setting": "[1]; Example A4 15 mg/kg iv five minutes prior to iv MCH bolus, after 5 minutes", "result": "no rise"}, {"measurement": "rise in plasma glucagon", "setting": "[1]; Example A4 15 mg/kg iv five minutes prior to iv MCH bolus, after 15 min", "result": 2.7, "unit": "%"}, {"measurement": "blood glucose increase", "setting": "[1]; Example A4 15 mg/kg iv five minutes prior to iv MCH bolus, time not given", "result": 44, "unit": "%"}, {"measurement": "pKi in binding to the 353 form of the 11CBy receptor", "setting": "[2]", "result": 7.7}]}, {"compound": "COc1cc(N2C(=O)c3ccc(Nc4ccccc4)cc3C2=O)ccc1OCCN1CCCC1", "note": "[Example A5, 2-[3-Methoxy-4-(2-pyrrolidin-1-yl-ethoxy)-phenyl]-5-phenylamino-isoindole-1,3-dione]", "values": [{"measurement": "Ki", "setting": "[2]", "result": "10 to 31.6", "unit": "nM"}]}, {"compound": "COc1cc(-n2nnc3cc(-c4ccccc4)ccc3c2=O)ccc1OCCN1CCCC1", "note": "[Example C5, 3-[3-Methoxy-4-(2-pyrrolidin-1-yl-ethoxy)-phenyl]-7-phenyl-3H-benzo[d][1,2,3]triazin-4-one]", "values": [{"measurement": "Ki", "setting": "[2]", "result": "10 to 31.6", "unit": "nM"}]}, {"compound": "COc1cc(-n2cnc3cc(-c4ccccc4)sc3c2=O)ccc1OCCN1CCCC1", "note": "[Example F1, 3-[3-Methoxy-4-(2-pyrrolidin-1-yl-ethoxy)-phenyl]-6-phenyl-3H-thieno[3,2-d]pyrimidin-4-one]", "values": [{"measurement": "Ki", "setting": "[2]", "result": "10 to 31.6", "unit": "nM"}]}, {"compound": "MCH (DFDMLRCMLGRVYRPCWQV; ends and bridges not checked; cysteine pairing not given here; UniProt P20382 147-165, looked up) [reference compound]", "values": [{"measurement": "Blood glucose", "setting": "[1]; MCH 50 ug/kg group, 5 min", "result": "6.5 ± 0.33 (7) mmol/l"}, {"measurement": "Plasma glucagon", "setting": "[1]; MCH 50 ug/kg group, 5 min", "result": "35.16 ± 2.5 (7) pg/ml"}, {"measurement": "Blood glucose", "setting": "[1]; MCH 50 ug/kg group, 15 min", "result": "11.81 ± 1.27 (7) mmol/l"}, {"measurement": "Plasma glucagon", "setting": "[1]; MCH 50 ug/kg group, 15 min", "result": "28.67 ± 1.61 (7) pg/ml"}, {"measurement": "Blood glucose", "setting": "[1]; MCH 50 ug/kg group, time 0", "result": "5.87 ± 0.22 (7) mmol/l"}, {"measurement": "Plasma glucagon", "setting": "[1]; MCH 50 ug/kg group, time 0", "result": "23.6 ± 1.2 (6) pg/ml"}, {"measurement": "increase in plasma glucagon from the pre-treatment value", "setting": "[1]; MCH 50 ug/kg iv alone, after 5 minutes", "result": 48.7, "unit": "%"}, {"measurement": "maximum rise in blood glucose concentration", "setting": "[1]; MCH 50 ug/kg iv alone, after 15 min", "result": 101, "unit": "%"}, {"measurement": "increase in plasma glucagon from the pre-treatment value", "setting": "[1]; MCH 50 ug/kg iv alone, after 15 minutes", "result": 21, "unit": "%"}]}]}
